Laboratory results: patent US9850283B2, “Macrocyclic inhibitors of the PD-1/PD-L1 and CD80(B7-1)/PD-L1 protein/protein interactions” (BRISTOL-MYERS SQUIBB COMPANY, priority 2013, dated 2017)
Positions of bridges follow the written chain, without caps; N, C: chain ends. Non-standard residues stand in square brackets, D forms with d. Residues, ends and D or L forms follow the SMILES beside them. Phe(4-CH2NH2) = NCc1ccc(C[C@H](N)C(=O)O)cc1; Bta = N[C@@H](Cc1csc2ccccc12)C(=O)O; NMeF = CN[C@@H](Cc1ccccc1)C(=O)O; NMeNle = CCCC[C@H](NC)C(=O)O; Sar = CNCC(=O)O

How the values were obtained:
[1] = target: T1, LK35.2-hPD-L1 cells / PE-labeled PD-1-Ig (Homo sapiens, UniProt Q9NZQ7); test: LK35.2-hPD-L1 cell binding high-content screening assay; type: cell-based; conditions: cluster symbol; cell line of CBA not given (LK35.2-hPD-L1 or 293T-hPD-L1); read-out: CBA IC50 cluster
T1 construct: expressed in transfected cells; host or cells: LK35.2 mouse B cell line
In short: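 Mouse LK35.2 B cells stably over-expressing human PD-L1, cultured overnight, treated with compound plus PE-labeled human PD-1-Ig (1 nM final) in RPMI/10% FCS for 1 h at 37 °C. After washing, bound fluorescence quantified by high-content imaging.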

[2] = target: T2, Human PD-L1/PD-1 (Homo sapiens, UniProt Q9NZQ7); test: HTRF PD-1-Ig/PD-L1-His binding assay (human PD-L1); conditions: cluster symbol; read-out: HTRF IC50 cluster
T2 construct: made in house; host or cells: HEK293T
In short: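 Interaction of Fc-tagged soluble PD-1 with His-tagged soluble PD-L1 is monitored by time-resolved FRET. Donor is europium cryptate anti-Ig (1 nM final) and acceptor is APC anti-His (20 nM final). Assay buffer is dPBS with 0.1% BSA and 0.05% Tween-20.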

T1 sequence (Q9NZQ7 19-290): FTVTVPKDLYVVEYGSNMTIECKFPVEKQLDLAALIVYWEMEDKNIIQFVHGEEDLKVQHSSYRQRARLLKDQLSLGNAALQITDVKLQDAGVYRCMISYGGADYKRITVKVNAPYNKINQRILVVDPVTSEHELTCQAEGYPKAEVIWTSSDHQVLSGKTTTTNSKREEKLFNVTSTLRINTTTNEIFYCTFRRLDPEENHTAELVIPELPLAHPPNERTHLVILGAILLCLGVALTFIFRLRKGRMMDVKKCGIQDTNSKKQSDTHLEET
T2 sequence (Q9NZQ7 with tags, fused parts or gaps): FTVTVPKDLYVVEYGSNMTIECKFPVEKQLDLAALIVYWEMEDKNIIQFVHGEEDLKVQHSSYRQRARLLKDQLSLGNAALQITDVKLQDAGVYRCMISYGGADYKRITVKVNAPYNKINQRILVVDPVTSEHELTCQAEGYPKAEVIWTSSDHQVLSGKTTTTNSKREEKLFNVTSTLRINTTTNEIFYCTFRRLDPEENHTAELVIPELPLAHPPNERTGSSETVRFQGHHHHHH

Structure (SMILES)	IC50 [1] [nM]	IC50 [2] [nM]
CC(C)C[C@@H]1NC(=O)[C@H](Cc2ccc(O)cc2)NC(=O)[C@H](Cc2c[nH]c3ccccc23)NC(=O)CN(C)C(=O)[C@H](Cc2ccc(O)cc2)NC(=O)[C@H](Cc2ccccc2)N(C)C(=O)[C@H](C(C)C)NC(=O)[C@H](CC(=O)O)NC(=O)CN(C)C(=O)[C@H](Cc2ccc(O)cc2)N(C)C(=O)[C@H](Cc2ccccc2)N(C)C(=O)[C@H](Cc2ccccc2)NC(=O)CSC[C@@H](C(=O)NCC(N)=O)NC1=O [Example 3060-B] (HELM PEPTIDE1{[O=C(C[*:3])[*:2]].F.[meF].[meY].[Sar].D.V.[meF].Y.[Sar].W.Y.L.C.G.[am]}$PEPTIDE1,PEPTIDE1,1:R3-14:R3$$$V2.0)	> 74.3	> 30.5
CC(C)C[C@@H]1NC(=O)[C@H](Cc2ccc(O)cc2)NC(=O)[C@H](Cc2c[nH]c3ccccc23)NC(=O)CN(C)C(=O)[C@H](Cc2ccc(O)cc2)NC(=O)[C@H](Cc2ccccc2)N(C)C(=O)[C@H](C(C)C)NC(=O)[C@H](CC(=O)O)NC(=O)CN(C)C(=O)[C@H](CCC(=O)O)N(C)C(=O)[C@H](Cc2ccccc2)N(C)C(=O)[C@H](Cc2ccccc2)NC(=O)CSC[C@@H](C(=O)NCC(N)=O)NC1=O [Example 3061] (HELM PEPTIDE1{[O=C(C[*:3])[*:2]].F.[meF].[meE].[Sar].D.V.[meF].Y.[Sar].W.Y.L.C.G.[am]}$PEPTIDE1,PEPTIDE1,1:R3-14:R3$$$V2.0)	> 74.3	6.76 to 30.3
CCCC[C@H]1C(=O)N(C)CC(=O)N[C@@H](CC(=O)O)C(=O)N[C@@H](C(C)C)C(=O)N(C)[C@@H](Cc2ccccc2)C(=O)N[C@@H](Cc2ccc(O)cc2)C(=O)N(C)CC(=O)N[C@@H](Cc2c[nH]c3ccccc23)C(=O)N[C@@H](Cc2ccc(O)cc2)C(=O)N[C@@H](CC(C)C)C(=O)N[C@H](C(=O)NCC(N)=O)CSCC(=O)N[C@@H](Cc2ccc(CN)cc2)C(=O)N(C)[C@@H](Cc2ccccc2)C(=O)N1C [Example 3063] ({CH2CO}-[Phe(4-CH2NH2)][NMeF][NMeNle][Sar]DV[NMeF]Y[Sar]WYLCG-NH2; thioether N-13)	> 74.3	> 30.5
CCCC[C@H]1C(=O)N(C)CC(=O)N[C@@H](CC(=O)O)C(=O)N[C@@H](C(C)C)C(=O)N(C)[C@@H](Cc2ccccc2)C(=O)N[C@@H](Cc2ccc(O)cc2)C(=O)N(C)CC(=O)N[C@@H](Cc2c[nH]c3ccccc23)C(=O)N[C@@H](Cc2ccc(O)cc2)C(=O)N[C@@H](CC(C)C)C(=O)N[C@H](C(=O)NCC(N)=O)CSCC(=O)N[C@@H](Cc2ccccc2)C(=O)N(C)[C@@H](CCC(=O)O)C(=O)N1C [Example 3064] (HELM PEPTIDE1{[O=C(C[*:3])[*:2]].F.[meE].[CCCC[C@@H](C(=O)[*:2])N(C)[*:1]].[Sar].D.V.[meF].Y.[Sar].W.Y.L.C.G.[am]}$PEPTIDE1,PEPTIDE1,1:R3-14:R3$$$V2.0)	> 74.3	6.76 to 30.3
CCCC[C@H]1C(=O)N(C)CC(=O)N[C@@H](CC(=O)O)C(=O)N[C@@H](C(C)C)C(=O)N(C)[C@@H](Cc2ccccc2)C(=O)N[C@@H](Cc2ccc(O)cc2)C(=O)N(C)CC(=O)N[C@@H](Cc2c[nH]c3ccccc23)C(=O)N[C@@H](Cc2ccc(O)cc2)C(=O)N[C@@H](CC(C)C)C(=O)N[C@H](C(=O)NCC(N)=O)CSCC(=O)N[C@@H](Cc2ccc(O)cc2)C(=O)N(C)[C@@H](Cc2ccccc2)C(=O)N1C [Example 3065] (HELM PEPTIDE1{[O=C(C[*:3])[*:2]].Y.[meF].[CCCC[C@@H](C(=O)[*:2])N(C)[*:1]].[Sar].D.V.[meF].Y.[Sar].W.Y.L.C.G.[am]}$PEPTIDE1,PEPTIDE1,1:R3-14:R3$$$V2.0)	> 74.3	> 30.5

Other lines, results leading:

IC50 [1] [nM]	IC50 [2] [nM]	Structure (SMILES)
> 74.3	> 30.5	CCCC[C@H]1C(=O)N(C)CC(=O)N[C@@H](CC(=O)O)C(=O)N[C@@H](C(C)C)C(=O)N(C)[C@@H](Cc2ccccc2)C(=O)N[C@@H](Cc2ccc(O)cc2)C(=O)N(C)CC(=O)N[C@@H](Cc2c[nH]c3ccccc23)C(=O)N[C@@H](Cc2ccc(O)cc2)C(=O)N[C@H](C(=O)NCC(N)=O)CSCC(=O)N[C@@H](Cc2ccccc2)C(=O)N(C)[C@@H](Cc2ccccc2)C(=O)N1C [Example 3054] (HELM PEPTIDE1{[O=C(C[*:3])[*:2]].F.[meF].[CCCC[C@@H](C(=O)[*:2])N(C)[*:1]].[Sar].D.V.[meF].Y.[Sar].W.Y.C.G.[am]}$PEPTIDE1,PEPTIDE1,1:R3-13:R3$$$V2.0)
> 74.3	> 30.5	CCCC[C@H]1C(=O)N(C)CC(=O)N[C@@H](CC(=O)O)C(=O)N[C@@H](C(C)C)C(=O)N(C)[C@@H](Cc2ccccc2)C(=O)N[C@@H](Cc2ccc(O)cc2)C(=O)N(C)CC(=O)N[C@@H](Cc2c[nH]c3ccccc23)C(=O)N[C@H](C(=O)NCC(N)=O)CSCC(=O)N[C@@H](Cc2ccccc2)C(=O)N(C)[C@@H](Cc2ccccc2)C(=O)N1C [Example 3055] (HELM PEPTIDE1{[O=C(C[*:3])[*:2]].F.[meF].[CCCC[C@@H](C(=O)[*:2])N(C)[*:1]].[Sar].D.V.[meF].Y.[Sar].W.C.G.[am]}$PEPTIDE1,PEPTIDE1,1:R3-12:R3$$$V2.0)
> 74.3	> 30.5	CCCC[C@H]1C(=O)N(C)CC(=O)N[C@@H](CC(=O)O)C(=O)N[C@@H](C(C)C)C(=O)N(C)[C@@H](Cc2ccccc2)C(=O)N[C@@H](Cc2ccc(O)cc2)C(=O)N(C)CC(=O)N[C@@H](Cc2c[nH]c3ccccc23)C(=O)N[C@@H](Cc2ccc(O)cc2)C(=O)N[C@@H](CC(C)C)C(=O)N[C@H](C(=O)NCC(N)=O)CSCC(=O)N[C@@H](Cc2ccccc2)C(=O)N(C)[C@@H](Cc2cnc[nH]2)C(=O)N1C [Example 3056-A] (HELM PEPTIDE1{[O=C(C[*:3])[*:2]].F.[meH].[CCCC[C@@H](C(=O)[*:2])N(C)[*:1]].[Sar].D.V.[meF].Y.[Sar].W.Y.L.C.G.[am]}$PEPTIDE1,PEPTIDE1,1:R3-14:R3$$$V2.0)
> 74.3	> 30.5	CCCC[C@H]1C(=O)N(C)CC(=O)N[C@@H](CC(=O)O)C(=O)N[C@@H](C(C)C)C(=O)N(C)[C@@H](Cc2cnc[nH]2)C(=O)N[C@@H](Cc2ccc(O)cc2)C(=O)N(C)CC(=O)N[C@@H](Cc2c[nH]c3ccccc23)C(=O)N[C@@H](Cc2ccc(O)cc2)C(=O)N[C@@H](CC(C)C)C(=O)N[C@H](C(=O)NCC(N)=O)CSCC(=O)N[C@@H](Cc2ccccc2)C(=O)N(C)[C@@H](Cc2ccccc2)C(=O)N1C [Example 3057] (HELM PEPTIDE1{[O=C(C[*:3])[*:2]].F.[meF].[CCCC[C@@H](C(=O)[*:2])N(C)[*:1]].[Sar].D.V.[meH].Y.[Sar].W.Y.L.C.G.[am]}$PEPTIDE1,PEPTIDE1,1:R3-14:R3$$$V2.0)
> 74.3	> 30.5	CCCC[C@H]1C(=O)N(C)CC(=O)N[C@@H](CC(=O)O)C(=O)N[C@@H](C(C)C)C(=O)N(C)[C@@H](Cc2cnc[nH]2)C(=O)N[C@@H](Cc2ccc(O)cc2)C(=O)N(C)CC(=O)N[C@@H](Cc2c[nH]c3ccccc23)C(=O)N[C@@H](Cc2ccc(O)cc2)C(=O)N[C@@H](CC(C)C)C(=O)N[C@H](C(=O)NCC(N)=O)CSCC(=O)N[C@@H](Cc2ccccc2)C(=O)N(C)[C@@H](Cc2cnc[nH]2)C(=O)N1C [Example 3058-A] (HELM PEPTIDE1{[O=C(C[*:3])[*:2]].F.[meH].[CCCC[C@@H](C(=O)[*:2])N(C)[*:1]].[Sar].D.V.[meH].Y.[Sar].W.Y.L.C.G.[am]}$PEPTIDE1,PEPTIDE1,1:R3-14:R3$$$V2.0)
4.78 to 72.9	6.76 to 30.3	CCCC[C@H]1C(=O)N(C)CC(=O)N[C@@H](CC(=O)O)C(=O)N[C@@H](C(C)C)C(=O)N(C)[C@@H](Cc2ccccc2)C(=O)N[C@@H](Cc2ccc(O)cc2)C(=O)N(C)CC(=O)N[C@@H](Cc2c[nH]c3ccccc23)C(=O)N[C@@H](Cc2ccc(O)cc2)C(=O)N[C@@H](CC(C)C)C(=O)N[C@H](C(=O)NCC(N)=O)CSCC(=O)N[C@@H](Cc2ccccc2)C(=O)N(C)[C@@H](Cc2ccc(O)cc2)C(=O)N1C [Example 3059] (HELM PEPTIDE1{[O=C(C[*:3])[*:2]].F.[meY].[CCCC[C@@H](C(=O)[*:2])N(C)[*:1]].[Sar].D.V.[meF].Y.[Sar].W.Y.L.C.G.[am]}$PEPTIDE1,PEPTIDE1,1:R3-14:R3$$$V2.0)
4.78 to 72.9	6.76 to 30.3	CC(C)C[C@@H]1NC(=O)[C@H](Cc2ccc(O)cc2)NC(=O)[C@H](Cc2c[nH]c3ccccc23)NC(=O)CN(C)C(=O)[C@H](Cc2ccc(O)cc2)NC(=O)[C@H](Cc2ccccc2)N(C)C(=O)[C@H](C(C)C)NC(=O)[C@H](CC(=O)O)NC(=O)CN(C)C(=O)[C@H](Cc2ccc(O)cc2)N(C)C(=O)[C@H](Cc2ccccc2)N(C)C(=O)[C@H](Cc2ccccc2)NC(=O)CSC[C@@H](C(=O)NCC(N)=O)NC1=O [Example 3060-A] (HELM PEPTIDE1{[O=C(C[*:3])[*:2]].F.[meF].[meY].[Sar].D.V.[meF].Y.[Sar].W.Y.L.C.G.[am]}$PEPTIDE1,PEPTIDE1,1:R3-14:R3$$$V2.0)
4.78 to 72.9	0.385 to 6.74	CCCC[C@H]1C(=O)N(C)CC(=O)N[C@@H](CC(=O)O)C(=O)N[C@@H](C(C)C)C(=O)N(C)[C@@H](Cc2ccccc2)C(=O)N[C@@H](Cc2ccc(O)cc2)C(=O)N(C)CC(=O)N[C@@H](Cc2csc3ccccc23)C(=O)N[C@@H](Cc2ccc(O)cc2)C(=O)N[C@@H](CC(C)C)C(=O)N[C@H](C(=O)NCC(N)=O)CSCC(=O)N[C@@H](Cc2ccccc2)C(=O)N(C)[C@@H](Cc2ccccc2)C(=O)N1C [Example 3062] ({CH2CO}-F[NMeF][NMeNle][Sar]DV[NMeF]Y[Sar][Bta]YLCG-NH2; thioether N-13)
